pKi: −log10 of the molar value.
What was measured:
[1] = target: σ1R (Homo sapiens, UniProt Q99720); assay: In vitro σ1R binding assay (radioligand displacement, NIMH PDSP); settings: read-out: In Vitro σ1R Affinity (Ki)
Text: Online Molinspiration and Osiris property explorer were used to calculate/predict drug-like molecular properties for the target compounds. These studies involved retrieving the σ1R crystal structure (5HK1) with embedded ligand (PD144418), preparation (e.g., H2O and ligand removal), and docking the target molecules via the PyRx and AutoDock Vina suite. […] Synthetically, a variety of approaches for obtaining acyl ureas were reviewed and the most feasible conditions were attempted with limited success—our goal was to obtain our compounds using the shortest and most cost-effective approach. […] We therefore slightly modified Stokes’ conditions by preparing the N-(phenoxycabonyl)benzamide intermediate from phenol and benzoyl isocynate. Coupling the intermediate with amines or amides or thioamides via simple nucleophilic displacement afforded our series of N-acyl ureas plus N-acyl thioureas (Table 1) in good yields (>64%). To confirm our pharmacological assumptions regarding these molecules behaving like PD144418, the compounds were sent to the National Institute of Mental Health’s Psychoactive Drug Screening Program and evaluated in radioligand displacement assays to determine their in vitro σ1R affinities or Ki values.
Computational (kcal/mol) versus in vitro (μM, from the National Institute of Mental Health Psychoactive Drug Screening Program or NIMH-PDSP [https://pdsp.unc.edu/pdspweb/ (accessed 28 February 2023)] σ1R binding affinity data are illustrated in Table 4.
Sigma-1 binding affinity experiments (Ki determinations) were conducted at the National Institute of Mental Health’s Psychoactive Drug Screening Program (NIMH PDSP). Sigma-1 receptor binding assay protocol details (radioligand displacement conditions, etc.) are available at https://pdsp.unc.edu/pdspweb/content/PDSP%20Protocols%20II%202013-03-28.pdf (accessed 28 February 2023).

σ1R, sequence (Q99720 whole entry, species assumed): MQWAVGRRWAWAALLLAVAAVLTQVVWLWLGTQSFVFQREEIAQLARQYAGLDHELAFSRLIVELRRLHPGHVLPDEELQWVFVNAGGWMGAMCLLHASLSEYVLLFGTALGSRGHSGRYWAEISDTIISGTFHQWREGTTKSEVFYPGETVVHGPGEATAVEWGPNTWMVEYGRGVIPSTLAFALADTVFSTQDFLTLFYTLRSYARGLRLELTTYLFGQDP

SMILES | melting point [°C] | pKi [1]
O=C(NC(=O)c1ccccc1)Nc1ccc2[nH]ccc2c1 [Compound 2] | 220 to 223 | < 5.00
Cc1cc(C)nc(NC(=O)NC(=O)c2ccccc2)n1 [Compound 13, N-((4,6-Dimethylpyrimidin-2-yl)carbamoyl)benzamide] | 183 to 185 | < 5.00
O=C(NC(=O)c1ccccc1)NC(=S)c1ccccn1 [Compound 3, N-((Pyridine-2-carbonothioyl)carbamoyl)benzamide] | 180 to 182 | < 5.00
O=C(NC(=S)Nc1cc2ccccc2cn1)c1ccccc1 [Compound 16, N-(Isoquinolin-3-ylcarbamothioyl)benzamide] | 162 to 165 | < 5.00
O=C(NC(=O)c1ccccc1)Nc1nc2ccccc2o1 [Compound 10, N-(Benzo[d]oxazol-2-ylcarbamoyl)benzamide] | 180 to 182 | 5.66
Cc1ccc(N2CCN(C(=O)NC(=O)c3ccccc3)CC2)cc1 [Compound 8, N-Benzoyl-4-(p-tolyl)piperazine-1-carboxamide] | 158 to 160 | < 5.00
Cc1cc(NC(=O)NC(=O)c2ccccc2)no1 [Compound 1, N-((5-Methylisoxazol-3-yl)carbamoyl)benzamide] |  | < 5.00

Continued, values first:

melting point [°C] | pKi [1] | SMILES
233 to 236 | < 5.00 | O=C(NC(=O)c1ccccc1)Nc1cnc2ccccc2c1 [Compound 14, N-(Quinolin-3-ylcarbamoyl)benzamide]
164 to 166 | < 5.00 | CC(C)(C)OC(=O)N1CCC(NC(=O)NC(=O)c2ccccc2)CC1 [Compound 9, Tert-butyl 4-(3-benzoylureido)piperidine-1-carboxylate]
209 to 211 | < 5.00 | Cc1cc2cc(NC(=O)NC(=O)c3ccccc3)ccc2[nH]1 [Compound 4, N-((2-Methyl-1H-indol-5-yl)carbamoyl)benzamide]
161 to 163 | < 5.00 | O=C(NC(=O)N1CCN(c2ccncc2)CC1)c1ccccc1 [Compound 6, N-Benzoyl-4-(pyridin-4-yl)piperazine-1-carboxamide]
237 to 238 | < 5.00 | O=C(NC(=O)c1ccccc1)Nc1cc2ccccc2cn1 [Compound 15, N-(Isoquinolin-3-ylcarbamoyl)benzamide]
176 to 177 | 5.02 | COc1cc(C(=S)NC(=O)NC(=O)c2ccccc2)ccc1O [Compound 12, N-((4-Hydroxy-3-methoxyphenylcarbonothioyl)carbamoyl) benzamide]
145 to 147 | < 5.00 | O=C(NC(=O)N1CCN(c2ncccn2)CC1)c1ccccc1 [Compound 5, N-Benzoyl-4-(pyrimidin-2-yl)piperazine-1-carboxamide]
170 to 172 | < 5.00 | O=C(NC(=O)N1CCC(O)CC1)c1ccccc1 [Compound 7]
155 to 157 | < 5.00 | Cc1c(C)c2c(c(C)c1O)CCC(C)(C(=O)NC(=O)NC(=O)c1ccccc1)O2 (stereo not shown) [Compound 11, N-(Benzoylcarbamoyl)-6-hydroxy-2,5,7,8-tetramethylchromane-2-carboxamide]

From article PMC10005056, “Design and Synthesis of New Acyl Urea Analogs as Potential σ1R Ligands” (Molecules, 2023)
